Laboratory results published in PMC4303209, “A novel phosphatidylinositol 3-kinase (PI3K) inhibitor directs a potent FOXO-dependent, p53-independent cell cycle arrest phenotype characterized by the differential induction of a subset of FOXO-regulated genes” (Breast Cancer Research : BCR, 2014).

System: MCF-7 breast cancer cells
Assay: Microarray gene expression analysis (Agilent whole human genome 4 x 44K; compound vs DMSO, LIMMA log2 fold change)
Type: cell-based

Oc1cccc(-c2nc(N3CCOCC3)c3oc4ncccc4c3n2)c1 [PI-103]
PRNP log2FC: 0.095
log2FC: 0.10
AARS log2FC (Apoptosis genes, Gene 16): -0.158
ABL1 log2FC (Apoptosis genes, Gene 25): -0.144
ABR log2FC (Apoptosis genes, Gene 29): -0.279
ACTN4 log2FC (Apoptosis genes, Gene 81): -0.244
ACTN1 log2FC (Apoptosis genes, Gene 87): -0.457
ACTN2 log2FC (Apoptosis genes, Gene 88): 0.074
ACTN3 log2FC (Apoptosis genes, Gene 89): -0.703
ACVR1 log2FC (Apoptosis genes, Gene 90): 0.552
ACVR1B log2FC (Apoptosis genes, Gene 91): -0.214
ADA log2FC (Apoptosis genes, Gene 100): -0.093
ADAM8 log2FC (Apoptosis genes, Gene 101): -0.513
ADAR log2FC (Apoptosis genes, Gene 103): -0.239
ADCYAP1 log2FC (Apoptosis genes, Gene 116): 0.042
ADD1 log2FC (Apoptosis genes, Gene 118): -0.173
ADM log2FC (Apoptosis genes, Gene 133): -0.875
ADORA1 log2FC (Apoptosis genes, Gene 134): -1.870
ADORA2A log2FC (Apoptosis genes, Gene 135): -0.109
ADRB1 log2FC (Apoptosis genes, Gene 153): -0.133
AES log2FC (Apoptosis genes, Gene 166): -0.056
AGT log2FC (Apoptosis genes, Gene 183): -0.084
AHR log2FC (Apoptosis genes, Gene 196): 0.783
AKT1 log2FC (Apoptosis genes, Gene 207): -0.579
AKT2 log2FC (Apoptosis genes, Gene 208): -0.406
ALDH1A3 log2FC (Apoptosis genes, Gene 220): -0.150
ALDOC log2FC (Apoptosis genes, Gene 230): 0.017
ALK log2FC (Apoptosis genes, Gene 238): 0.007
ALOX15B log2FC (Apoptosis genes, Gene 247): -0.00234
ANGPT1 log2FC (Apoptosis genes, Gene 284): -0.412
SLC25A4 log2FC (Apoptosis genes, Gene 291): -0.414
SLC25A5 log2FC (Apoptosis genes, Gene 292): -0.037
ANXA1 log2FC (Apoptosis genes, Gene 301): 0.803
ANXA4 log2FC (Apoptosis genes, Gene 307): 0.480
ANXA5 log2FC (Apoptosis genes, Gene 308): 0.167
APAF1 log2FC (Apoptosis genes, Gene 317): 0.575
NUDT2 log2FC (Apoptosis genes, Gene 318): 0.219
APBB2 log2FC (Apoptosis genes, Gene 323): -0.180
APC log2FC (Apoptosis genes, Gene 324): 0.150
BIRC3 log2FC (Apoptosis genes, Gene 330): -0.884
BIRC5 log2FC (Apoptosis genes, Gene 332): 0.037
APLP1 log2FC (Apoptosis genes, Gene 333): -0.057
APOE log2FC (Apoptosis genes, Gene 348): 0.390
APP log2FC (Apoptosis genes, Gene 351): 0.331
FASLG log2FC (Apoptosis genes, Gene 356): -0.231
AQP2 log2FC (Apoptosis genes, Gene 359): -0.010
AR log2FC (Apoptosis genes, Gene 367): 0.287
ARAF log2FC (Apoptosis genes, Gene 369): -0.336
ARF6 log2FC (Apoptosis genes, Gene 382): -0.566
RHOB log2FC (Apoptosis genes, Gene 388): -0.099
ARHGAP4 log2FC (Apoptosis genes, Gene 393): 0.173
ARHGDIA log2FC (Apoptosis genes, Gene 396): -0.904
ARRB2 log2FC (Apoptosis genes, Gene 409): 0.444
ASCL1 log2FC (Apoptosis genes, Gene 429): -0.053
ASNS log2FC (Apoptosis genes, Gene 440): -0.385
ATF4 log2FC (Apoptosis genes, Gene 468): -0.201
ATM log2FC (Apoptosis genes, Gene 472): 0.013
ATP2A1 log2FC (Apoptosis genes, Gene 487): -0.025
AVP log2FC (Apoptosis genes, Gene 551): -0.317
AXL log2FC (Apoptosis genes, Gene 558): 0.362
AZU1 log2FC (Apoptosis genes, Gene 566): 0.048
BAD log2FC (Apoptosis genes, Gene 572): 0.529
BAG1 log2FC (Apoptosis genes, Gene 573): 1.113
BAK1 log2FC (Apoptosis genes, Gene 578): -0.383
BARD1 log2FC (Apoptosis genes, Gene 580): 0.336
BAX log2FC (Apoptosis genes, Gene 581): -0.146
BCL2 log2FC (Apoptosis genes, Gene 596): -0.342
BCL2A1 log2FC (Apoptosis genes, Gene 597): -0.041
BCL2L1 log2FC (Apoptosis genes, Gene 598): -0.919
BCL2L2 log2FC (Apoptosis genes, Gene 599): 0.313
BCL3 log2FC (Apoptosis genes, Gene 602): -1.077
BCL6 log2FC (Apoptosis genes, Gene 604): 1.197
BDNF log2FC (Apoptosis genes, Gene 627): -0.180
BID log2FC (Apoptosis genes, Gene 637): -0.261
BIK log2FC (Apoptosis genes, Gene 638): -0.571
BLM log2FC (Apoptosis genes, Gene 641): 0.071
BMP4 log2FC (Apoptosis genes, Gene 652): 0.224
BMP7 log2FC (Apoptosis genes, Gene 655): -0.324
BMPR1B log2FC (Apoptosis genes, Gene 658): -0.150
BMX log2FC (Apoptosis genes, Gene 660): 0.041
BNIP1 log2FC (Apoptosis genes, Gene 662): 0.320
BNIP2 log2FC (Apoptosis genes, Gene 663): 0.429
BNIP3 log2FC (Apoptosis genes, Gene 664): 0.757
BNIP3L log2FC (Apoptosis genes, Gene 665): 1.132
FOXL2 log2FC (Apoptosis genes, Gene 668): -0.465
BRCA1 log2FC (Apoptosis genes, Gene 672): 0.741
BRAF log2FC (Apoptosis genes, Gene 673): 0.018
BRCA2 log2FC (Apoptosis genes, Gene 675): 0.100
BTC log2FC (Apoptosis genes, Gene 685): 0.236
BTG1 log2FC (Apoptosis genes, Gene 694): 1.197
BUB1 log2FC (Apoptosis genes, Gene 699): 0.591
BUB1B log2FC (Apoptosis genes, Gene 701): 0.146
TSPO log2FC (Apoptosis genes, Gene 706): 0.105
C5AR1 log2FC (Apoptosis genes, Gene 728): 0.079
CACNA1A log2FC (Apoptosis genes, Gene 773): -0.069
CALR log2FC (Apoptosis genes, Gene 811): -0.161
CAMK2B log2FC (Apoptosis genes, Gene 816): 0.010
CAST log2FC (Apoptosis genes, Gene 831): 0.459
CASP1 log2FC (Apoptosis genes, Gene 834): 0.025
CASP2 log2FC (Apoptosis genes, Gene 835): -0.763
CASP3 log2FC (Apoptosis genes, Gene 836): 0.305
CASP4 log2FC (Apoptosis genes, Gene 837): 0.021
CASP5 log2FC (Apoptosis genes, Gene 838): -0.191
CASP6 log2FC (Apoptosis genes, Gene 839): 0.478
CASP7 log2FC (Apoptosis genes, Gene 840): -0.335
CASP8 log2FC (Apoptosis genes, Gene 841): 0.045
CASP9 log2FC (Apoptosis genes, Gene 842): 0.133
CASR log2FC (Apoptosis genes, Gene 846): 0.046
CAT log2FC (Apoptosis genes, Gene 847): 0.456
CAV1 log2FC (Apoptosis genes, Gene 857): 0.357
RUNX3 log2FC (Apoptosis genes, Gene 864): -0.359
CBL log2FC (Apoptosis genes, Gene 867): 0.455
CBS log2FC (Apoptosis genes, Gene 875): -0.393
KRIT1 log2FC (Apoptosis genes, Gene 889): 0.580
CCNG1 log2FC (Apoptosis genes, Gene 900): 0.460
CD2 log2FC (Apoptosis genes, Gene 914): -0.198
CD3E log2FC (Apoptosis genes, Gene 916): -0.245
CD3G log2FC (Apoptosis genes, Gene 917): -0.217
CD5 log2FC (Apoptosis genes, Gene 921): 0.023
CD5L log2FC (Apoptosis genes, Gene 922): -0.081
CD14 log2FC (Apoptosis genes, Gene 929): -0.379
CD28 log2FC (Apoptosis genes, Gene 940): 0.036
CD40 log2FC (Apoptosis genes, Gene 958): -0.612
CD44 log2FC (Apoptosis genes, Gene 960): -0.262
CD59 log2FC (Apoptosis genes, Gene 966): -0.006
CD74 log2FC (Apoptosis genes, Gene 972): 0.013
CDC34 log2FC (Apoptosis genes, Gene 997): 0.509
CDC42 log2FC (Apoptosis genes, Gene 998): 0.080
CDK4 log2FC (Apoptosis genes, Gene 1019): 0.170
CDKN1A log2FC (Apoptosis genes, Gene 1026): -1.229
CDKN1B log2FC (Apoptosis genes, Gene 1027): 1.116
CDKN2A log2FC (Apoptosis genes, Gene 1029): 0.303
CDKN2D log2FC (Apoptosis genes, Gene 1032): 0.903
CEBPB log2FC (Apoptosis genes, Gene 1051): -0.197
CFL1 log2FC (Apoptosis genes, Gene 1072): -0.246
CTSC log2FC (Apoptosis genes, Gene 1075): -0.333
CGB log2FC (Apoptosis genes, Gene 1082): -0.180
CLU log2FC (Apoptosis genes, Gene 1191): 0.052
CLN3 log2FC (Apoptosis genes, Gene 1201): -0.046
CCR7 log2FC (Apoptosis genes, Gene 1236): 0.113
PLK3 log2FC (Apoptosis genes, Gene 1263): -1.591
CNR1 log2FC (Apoptosis genes, Gene 1268): 0.471
ATF2 log2FC (Apoptosis genes, Gene 1386): 0.878
CRH log2FC (Apoptosis genes, Gene 1392): 0.059
CRIP1 log2FC (Apoptosis genes, Gene 1396): 0.723
CRYAA log2FC (Apoptosis genes, Gene 1409): -0.050
CRYAB log2FC (Apoptosis genes, Gene 1410): -0.029
MAPK14 log2FC (Apoptosis genes, Gene 1432): -0.303
CSE1L log2FC (Apoptosis genes, Gene 1434): 0.551
CSF2 log2FC (Apoptosis genes, Gene 1437): -0.616
CSNK2A1 log2FC (Apoptosis genes, Gene 1457): -0.647
CSNK2A2 log2FC (Apoptosis genes, Gene 1459): 0.329
CSTB log2FC (Apoptosis genes, Gene 1476): 0.261
NKX2-5 log2FC (Apoptosis genes, Gene 1482): -0.572
CTGF log2FC (Apoptosis genes, Gene 1490): -0.354
CTH log2FC (Apoptosis genes, Gene 1491): 0.722
